Where “and” joins values, the source holds several entries; their conditions need not be identical. Equal values may be shown once.
Legend:
Type in all cases: cell-based, human
MV4;11 cells [1] = assay: Annexin V apoptosis assay (flow cytometry); conditions: for MV4;11 % Annexin V(+) cells: 7 days
RS4;11 cells = assay: MTT cell viability assay; conditions: 7 days
Protocol: (§1) Human leukemia cells K562, MV4;11 and RS4;11 (purchased from ATCC) and KOPN8, MOLM13 (purchased from DSMZ) were cultured in RPMI 1640 (Invitrogen) supplemented with 10% heat inactivated (h.i.) FBS and 1% penicillin/streptomycin (Invitrogen). SET2 cells (purchased from DSMZ) were cultured in RPMI 1640 supplemented with 20% h.i. FBS and 1% penicillin/streptomycin. Cells were plated at 1 × 10^5 to 2 × 10^5 cells/mL depending on cell line and treated with 0.25% DMSO or varying concentrations of compounds and incubated at 37 °C, 5% CO2 incubator for 7 days. Media was changed on day 3 or 4 and compounds were resupplied. […] Cell suspensions (100 μL) were transferred to the 96-well plates for each sample in quadruplicate at the time of media change. At day 7, 10 µL of MTT reagent (M6494, Molecular Probes™) was added to each well of the 96 well plate and incubated at 37 °C for 4 h. The formazan was then solubilized by adding 100 µL acidified 10% SDS solution and incubated at 37 °C overnight. Plates were read for absorbance at 570 nm using a PHERAstar BMG microplate reader. The experiments were performed two times in quadruplicates with calculation of mean and SD for each condition. Data were analyzed in Prism 8.0.0 to obtain GI50 values.

SET2 cells = assay: MTT cell viability assay; conditions: MTT, 7 days
Protocol: as §1

KOPN8 cells = assay: Flow cytometry of CD11B expression (differentiation); conditions: 7 days
Protocol: (§2) In addition, 1 × 10^5 cells per sample were stained with Zombie Aqua™ dye (1:100 dilution) for 15 min using the Zombie Aqua™ Fixable Viability Kit (Zombie Aqua™ Fixable Viability Kit, Biolegend®) […] and then for 30 min with an anti-CD11B-PE antibody (982606, ICRF44, Biolegend®) or anti-CD11B-Pacific Blue (101224, BD BioLegend) antibody at 1:50 dilution, according to the No-wash Sequential Staining Protocol described by the manufacturer (BioLegend, Zombie Aqua Fixable Viability Kit). Cells were washed twice with 500 µL PBS containing 1% FBS and resuspended in 200 µL PBS with 1% FBS.

MV4;11 cells [2] = assay: as above; conditions: for MV4;11 % CD11B+ cells: 7 days
Protocol: as §2

[3] = tested on: MLL fusion target genes in MOLM13 cells; assay: Real time qRT-PCR gene expression
Protocol: 0.5 × 10^6 – 3 × 10^6 cells from each sample were collected at days 7 or 8 of treatment, centrifuged at 211 xg, and RNA was extracted according to the RNeasy Mini Kit protocol (74106, Qiagen). Extracted RNA was quantified using Nanodrop 2000 UV-Vis spectrophotometer and 0.5–1 µg of total RNA was reverse transcribed into cDNA using High-Capacity cDNA Reverse Transcription Kit (4368814, Applied Biosystems™) according to the manufacturer’s protocol. Real-time PCR was performed using the CFX96 Touch Real-Time PCR Detection System (Bio-Rad). TaqMan Gene Expression Master Mix and TaqMan Gene Expression Assays were purchased from Applied Biosystems. Relative quantification of each gene transcript was carried out using the comparative Ct method as described in the Applied Biosystems User Bulletin no. 2. TaqMan Gene Expression Assays were used: HPRT1: Hs02800695_m1, DLX2: Hs00269993_m1, FLT3: Hs00174690_m1, HOXA9: Hs00365956_m1, MEF2C: Hs00231149_m1, MEIS1: Hs00180020_m1, MNDA: Hs00935905_m1.
Supplementary Figure 10. Effect of AS-nc on gene expression in MLL leukemia cells. (a, b) Quantitative RT-PCR performed in MOLM13 cells (a) or MV4;11 cells (b) after 7 days of treatment with AS-nc. Gene expression was normalized to HPRT1 and referenced to the DMSO treated cells. Representative data from two independent experiments, each performed in triplicates, […]

[4] = tested on: MLL leukemia cells (MV4;11, MOLM13, KOPN8, RS4;11); assay: MTT cell viability assay, MLL leukemia cells as a group; conditions: 7 days
Protocol: as §1
Supplementary Figure 4. Cell viability assay for AS-6 in MLL leukemia cell lines. Titration curves from the MTT cell viability assay performed after 7 days of treatment of human MLL1- […]
replicates. Representative graphs are shown from two independent MTT experiments performed […]
Supplementary Figure 7. […] (a)
Titration curves from the MTT cell viability assay performed after 4, 7, and 11 (or 10) days of […]
Titration curves from the MTT cell viability assay performed after 7 days of treatment of KOPN8 , MOLM13 and MV4;11 cell lines harboring MLL1 translocation (MLL1-r) or K562 cell line (non- […]
Representative graphs are shown from two independent MTT experiments performed for each cell line. GI50 values correspond to […]

SMILES: CN1CC(C(=O)NCc2ccc3c(-c4cccc(C(N)=O)c4)cn(C4CCN(S(=O)(=O)C(F)(F)F)CC4)c3c2)C1 [AS-nc]
- MV4;11 % Annexin V(+) cells (MV4;11 cells [1]; 2 uM): 3.62% and 6.04% and 7.38%
- MV4;11 % Annexin V(+) cells (MV4;11 cells [1]; 4 uM): 2.35% and 3.67% and 4.83%
- MV4;11 % Annexin V(+) cells (MV4;11 cells [1]; 6 uM): 3% and 3.59% and 6.28%
- apoptosis in the MLL leukemia cells (Annexin V positive cells) (MV4;11 cells [1]; MV4;11 and KOPN8): not observed
- % activity RS4;11 (RS4;11 cells; log[compound] -4.92082): 85.5125% and 87.6993% and 89.3394% and 75.672%
- % activity RS4;11 (RS4;11 cells; log[compound] -5.22185): 105.376% and 104.647% and 93.5307% and 91.5262%
- % activity RS4;11 (RS4;11 cells; log[compound] -5.52288): 102.096% and 100.638% and 93.713% and 78.4055%
- % activity RS4;11 (RS4;11 cells; log[compound] -5.82391): 120.137% and 113.941% and 76.4009% and 77.1298%
- % activity RS4;11 (RS4;11 cells; log[compound] -6.12494): 99.7267% and 104.647% and 93.8952%
- % activity RS4;11 (RS4;11 cells; log[compound] -6.42597): 106.287% and 103.553% and 98.8155% and 91.344%
- % activity SET2 (SET2 cells; log[compound] -4.92082): 98.5542% and 101.644% and 102.951% and 102.436%
- % activity SET2 (SET2 cells; log[compound] -5.22185): 96.2567% and 98.5146% and 98.9107% and 94.9495%
- % activity SET2 (SET2 cells; log[compound] -5.52288): 90.1168% and 94.8703% and 93.8007% and 101.723%
- % activity SET2 (SET2 cells; log[compound] -5.82391): 80.8081% and 86.1953% and 84.7693% and 93.5235%
- % activity SET2 (SET2 cells; log[compound] -6.12494): 93.2858% and 94.8703% and 102.04% and 107.625%
- % activity SET2 (SET2 cells; log[compound] -6.42597): 105.803% and 101.208% and 102.278% and 90.711%
- KOPN8 % CD11B+ cells (KOPN8 cells; 2 uM): 0.42% and 0.43% and 0.48%
- KOPN8 % CD11B+ cells (KOPN8 cells; 4 uM): 0.64% and 0.72% and 0.67%
- KOPN8 % CD11B+ cells (KOPN8 cells; 6 uM): 0.89% and 0.7% and 0.72%
- MV4;11 % CD11B+ cells (MV4;11 cells [2]; 2 uM): 1.31% and 1.08% and 1.06%
- MV4;11 % CD11B+ cells (MV4;11 cells [2]; 4 uM): 0.67% and 0.84% and 0.66%
- MV4;11 % CD11B+ cells (MV4;11 cells [2]; 6 uM): 1.1% and 1.04% and 1.27%
- differentiation in MLL leukemia cells (MV4;11 cells [2]; MV4;11 and KOPN8): not observed
- MOLM13 fold change vs DMSO, DLX2 ([3]; AS-nc 2 uM): 1.06 and 1.01 and 0.76
- MOLM13 fold change vs DMSO, FLT3 ([3]; AS-nc 2 uM): 1.07 and 0.95 and 0.92
- MOLM13 fold change vs DMSO, HOXA9 ([3]; AS-nc 2 uM): 1.01 and 1.09 and 0.84
- MOLM13 fold change vs DMSO, MEF2C ([3]; AS-nc 2 uM): 0.98 and 1.02 and 0.94
- MOLM13 fold change vs DMSO, MEIS1 ([3]; AS-nc 2 uM): 1.03 and 1.08 and 0.97
- MOLM13 fold change vs DMSO, MNDA ([3]; AS-nc 2 uM): 1.45 and 1.05 and 1.01
- MOLM13 fold change vs DMSO, DLX2 ([3]; AS-nc 4 uM): 1.02 and 0.96 and 0.71
- MOLM13 fold change vs DMSO, FLT3 ([3]; AS-nc 4 uM): 1.03 and 0.86 and 0.96
- MOLM13 fold change vs DMSO, HOXA9 ([3]; AS-nc 4 uM): 0.95 and 1 and 1.06
- MOLM13 fold change vs DMSO, MEF2C ([3]; AS-nc 4 uM): 1 and 0.95 and 1.01
- MOLM13 fold change vs DMSO, MEIS1 ([3]; AS-nc 4 uM): 0.97 and 1.1 and 0.95
- MOLM13 fold change vs DMSO, MNDA ([3]; AS-nc 4 uM): 1.29 and 1.57 and 1.44
- MOLM13 fold change vs DMSO, DLX2 ([3]; AS-nc 6 uM): 1.04 and 1 and 0.77
- MOLM13 fold change vs DMSO, FLT3 ([3]; AS-nc 6 uM): 1.07 and 0.95 and 0.88
- MOLM13 fold change vs DMSO, HOXA9 ([3]; AS-nc 6 uM): 1.03 and 0.88 and 0.9
- MOLM13 fold change vs DMSO, MEF2C ([3]; AS-nc 6 uM): 1.03 and 0.94 and 0.96
- MOLM13 fold change vs DMSO, MEIS1 ([3]; AS-nc 6 uM): 0.86 and 1.09 and 0.93
- MOLM13 fold change vs DMSO, MNDA ([3]; AS-nc 6 uM): 1.31 and 1.06 and 0.93
- expression of MLL fusion target genes (MEF2C, DLX2, FLT3, HOXA9) ([3]; MOLM13 and MV4;11): no changes
- effect on MLL leukemia cells (viability) [4]: no or much weaker effects

From paper PMC8121805, “Discovery of first-in-class inhibitors of ASH1L histone methyltransferase with anti-leukemic activity” (Nature Communications, 2021)
